Experimental data: patent US9133103B2, “N-substituted benzenepropanamide and benzenepropenamide for use in the prevention or the treatment of affective disorders” (Novaremed, Ltd., priority 2011, dated 2015)

Experiments:
Format in all cases: in vivo
Balb/c mice [1] = test: Open field test (exploratory locomotor activity); conditions: 0.1 or 5 mg/kg oral, subchronic; for time spent in zones 2 and 3: in comparison to control mice, FIG. 1F; for locomotor activity (distance moved, velocity, strong mobility and immobility): recorded over 20 minutes, in comparison to the control mice, FIG. 1A-1D
Procedure: This method is one of the most popular in evaluation of animals' behaviour. It tests both motility parameters and anxiety (Prut et al). An individual mouse is placed in a novel plexiglass arena of 50×50 cm the floor of which is divided into 3 digital zones. The outer peripheral zone 1, the medial zone 2 and the most central zone 3. The animal behaviour in the open field is recorded by videotaping for 20 min and analyzed subsequently digitally using Noldus software for animal behaviour. The measurements include general motility: distance moved, velocity and strong mobility, as well as anxiety parameters including frequency of visits to the central area, time spent in the inner field, and number of rearing events in the centre. The more the animal stays and performs in the centre, it is less anxious.
40, 9 week old naïve male Balb/c mice were divided in 5 groups (8 mice in each group) and treated daily (0 min, p.o.) for two weeks, as follows: • 1. Control—0.5% DMSO 0.3 ml/mouse, po (3 ml/10 mice) (15 μl DMSO+2994 μl DDW), n=8. • 2. Diclofenac 10 mg/Kg=0.3 mg/0.3 ml/mouse, i.p. (3 ml/10 mice), n=8 • 3. 135S 0.5 mg/Kg=0.015 mg/0.3 ml/mouse, po (3 ml/10 mice) (135S 0.15 mg (Stock 50 mg/1 ml DMSO) 3 μl+2997 μl DDW), n=8 • 4. 135S 2.5 mg/kg=0.075 mg/0.3 ml/mouse, po (3 ml/10 mice) ([…] 0.75 mg (Stock 50 mg/1 ml DMSO) 15 μl+2985 μl DDW), n=8 • 5. 135S 0.1 mg/Kg=0.003 mg/0.3 ml/mouse, po (3 ml/10 mice) (135S […] (Stock 50 mg/1 ml DMSO) 0.6 μl+2999.4 μl DDW), n=8
Fifteen days after treatment, the five groups of mice listed above were subjected to the open field test for […]. The activity of the mice was assessed by an EthoVision video track system (Noldus Ltd.) A centre zone (“zone 3”; approximately 16% of the total area), a border area (“zone 1”; an 8 cm wide border around the edge of the arena) and an intermediate zone (“zone 2”; the remaining area) were defined. Quantitative parameters, such as the distance travelled and average speed, were recorded for the centre zone and the entire arena.
An Open Field test measures activity in a novel environment and can be used to assess a combination of locomotor activity, exploratory drive, neophobia, agoraphobia and other aspects of anxiety or fear in mice, as well as motor function. Treatment using a 0.1 mg/kg or 5 mg/kg dose of 135S or 175S compound was compared to the effect of treatment with a control substance (DMSO) or Diclofenac. The mice were placed in the centre of the arena and their activity and behaviour was recorded over a period of 20 minutes in respect of the distance moved (cm), velocity (cm/s), strong mobility and immobility. The ratio of total duration between the inner zones 2 and 3 in comparison to the outer zone 1 was recorded. The total duration in the inner zones 2 and 3 was also determined.

Balb/c mice [2] = test: Elevated plus maze; conditions: 0.1, 0.5, 2.5 mg/kg p.o., test on day 8, 15 minutes, in comparison to control mice
Procedure: This model uses the natural fear of rodents to avoid open and elevated places. The apparatus consists of a plus-maze with two enclosed and two opposite open arms, elevated above the floor. […] This is one of the most widely used models to study effects of anxiety-like behaviour. The maze consisted of two opposing open arms (40×10 cm) and two opposing closed arms (40×10 cm, with 40 cm walls) on a platform 50 cm above the ground.
The groups of mice were treated as in Example 2 and an elevated plus maze test was carried out on day 8. This test was used as a further test of the anxiolytic effect of the drugs of the invention.
The mice were placed in the centre of the maze facing an open arm and were allowed to freely explore the maze for 15 minutes. During this time, their behaviour was observed.

Balb/c mice [3] = test: Marble burying test; conditions: 0.1, 0.5 and 2.5 mg/kg p.o., test on day 15, 20 glass marbles, 20 minutes; against control mice; FIG. 4
Procedure: The marble burying test is a useful model of neophobia, anxiety and obsessive-compulsive behaviour. It has also been proposed that the test may have predictive validity for the screening of novel antidepressants, anxiolytics and antipsychotics. Mice can be expected to bury roughly 75% of the marbles in a 30 min period, although it varies with strain and gender. In this study, male Balb/c mice were used.
The groups of mice were treated as in Example 2 and a marble burying test was carried out on day 15. The mice were placed individually into a cage containing 20 glass marbles and exposed for 20 minutes. The number of marbles buried by the mice was monitored. […] This test provides further evidence of the anxiolytic properties of this compound, in particular with respect to treatment of obsessive compulsive disorder (OCD).

Balb/c mice [4] = test: Forced swim test
Text: This is one of the most widely used tools for screening antidepressant activity preclinically in an acute test and was first described by Porsolt et al (1977). The test is based on the observation that rats and mice develop an immobile posture when placed in an inescapable cylinder of water. This behavior is considered to be a behavioural despair as opposed to an active form of coping with stressful conditions. An antidepressant will reduce immobility and increase motivated behaviour of the rodent to escape from the despaired conditions. This is evidenced by increase in time of swimming, distance moved, velocity and attempts to climb the walls (strong mobility). FST is considered a good screen tool with good reliability and predictive validity.
The test in male mice (Balb/c Harlan IL) was conducted after 4 days of drug administration (90 min post last drug administration). Round glass cylinders 18 cm diameter and 20 cm depth were used. Water temperature was 24-28° C. Motivated behaviour was defined by immobility, swimming and strong mobility. Immobility in the animals was defined by activity lower than 10% movement of the centre of gravity of the animal. Swimming was defined by the distance and the velocity of the animal, and climbing was related to strong mobility (movement of centre of gravity more than 30%). Animals were dropped to the cylinder for 6 min and scoring was performed in the last 4 min after 2 min of adaptation. All results were analyzed by the Noldus (Holland) system including a camera and software for animal behaviour analyses.
Mice were treated with compound 135S at three different concentrations (0.1 mg/kg, 0.5 mg/kg and 2.5 mg/kg), or with the anti-depressant Fluoxetine (10 mg/kg) administered orally in a daily dose for 14 days. The forced swim test was performed on […].
In a first trial, the mice were placed in a tank of water, from which they could not escape. The mobility and immobility of the mice was monitored. In a second trial, the same mice were placed back into the tank. The mobility and immobility of the mice was again monitored.

[5] = 0.1, 0.5 and 2.5 mg/kg oral, in comparison to control mice, FIG. 2A-2C

| SMILES | time spent in zones 2 and 3 (Balb/c mice [1]) | locomotor activity (distance moved, velocity, strong mobility and immobility) (Balb/c mice [1]) | exploration of the maze (Balb/c mice [2]; FIG. 3A-3D) | time spent within the open arms (Balb/c mice [2]; FIG. 3B) | number of marbles buried (Balb/c mice [3]) | immobility (Balb/c mice [4]; [5]) | mobility (Balb/c mice [4]; [5]) | anti-depressant effect compared with Fluoxetine (Balb/c mice [4]; 135S 0.1, 0.5 and 2.5 mg/kg against Fluoxetine 10 mg/kg, oral) |
| --- | --- | --- | --- | --- | --- | --- | --- | --- |
| O=C(CCc1ccccc1)NC(COCCO)Cc1ccc(O)cc1 (stereo not shown) [Compound 175S] | significant increase | did not show a significant effect | – | – | – | – | – | – |
| CC(O)COCC(Cc1ccc(O)cc1)NC(=O)CCc1ccccc1 (stereo not shown) [Compound 135S] | significant increase | did not show a significant effect | increased exploration of the maze | increased time spent within the open arms | significantly less marbles than control mice | decrease | increase | greater than that resulting from treatment of mice with the common anti-depressant drug Fluoxetine |
